Data set [1] deals with Oral epithelial cells (OC3). Briefly: MTT cell viability of mock- or HSV-1-infected oral epithelial cells (OC3). In kind it is cell-based. The conditions noted are these: OC3 cells, MTT, 19 hours post infection. The protocol: (§1) FIG. 4 provides Experimental conditions for evaluation of the effects of Antrodia camphorata fruit body extracts on oral epithelial cells during HSV-1 infection. Three experimental conditions, including no-treatment, pre-treatment and post-treatment were performed. Oral epithelial cells (OC3) were pre-treated with media only or media containing each Antrodia camphorata extracts for 2 hours, followed by HSV-1 inoculation. Cells were infected with HSV-1 viruses at multiplicity of infection (MOI) of 5 or mock infected for 1 hour at 37° C. for viral entry to occur. Antrodia camphorata extracts were not added during viral inoculation for 1 hour to avoid of its direct effects on virions. Mock- or HSV-1-infected cells were further incubated in the absence or presence of the drug for 19 hours.
The oral epithelial cell line (OC3) was used to determine the possible effects of Antrodia camphorata extracts on oral epithelial cells during HSV-1 infection. Cell monolayers were treated as illustrated in FIG. 4 (please also see details in the Materials and Methods section). Three experimental conditions, including no-treatment, pre-treatment and post-treatment were performed. Whether these Antrodia camphorata extracts have effects before or after viral infection were examined. The effects of Antrodia camphorata extracts on viral propagation (viral yields) in infected oral epithelial cells were examined. At 19-20 h post infection, viral yields in the supernatants were determined using the plaque assay. Viability of treated cells was also determined using the MTT assay for the mitochondrial dehydrogenase activity. Moreover, purified HSV-1 virions were directly treated with Antrodia camphorata extracts to examine whether Antrodia camphorata extracts exert anti-HSV-1 activity directly on virus particles before viral entry. […]
The mitochondrial dehydrogenase activity of treated cells was evaluated using the FBS-free medium containing 1 mg/ml of 3-[4,5-dimethylthiazol-2-yl]-2,5 diphenyltetrazolium bromide (MTT). […]

The next data set concerns HSV-1 virus (KOS strain). Briefly: HSV-1 viral yields in supernatants of OC3 cells, plaque assay. In kind it is cell-based, Herpes simplex virus type 1. The conditions noted are these: for viral yields in the supernatants, post-treatment: OC3 cells post-treated after HSV-1 infection (MOI 5), 19 hours; for viral yield reduced to: media control = 100%; for viral yields in the supernatants, pre-treatment: OC3 cells pre-treated 2 hours before HSV-1 infection (MOI 5). On the procedure: as §1
(§2) The oral epithelial cell line (OC3) was used to determine the possible effects of Antrodia camphorata extracts on oral epithelial cells during HSV-1 infection. Cell monolayers were treated as illustrated in FIG. 4 (please also see details in the Materials and Methods section). Three experimental conditions, including no-treatment, pre-treatment and post-treatment were performed. Whether these Antrodia camphorata extracts have effects before or after viral infection were examined. The effects of Antrodia camphorata extracts on viral propagation (viral yields) in infected oral epithelial cells were examined. At 19-20 h post infection, viral yields in the supernatants were determined using the plaque assay. Viability of treated cells was also determined using the MTT assay for the mitochondrial dehydrogenase activity. Moreover, purified HSV-1 virions were directly treated with Antrodia camphorata extracts to examine whether Antrodia camphorata extracts exert anti-HSV-1 activity directly on virus particles before viral entry.
HSV-1 virus (KOS strain) from the extra-cellular fluid of infected Vero cells was purified using sucrose-gradient. Purified viruses were stored frozen in small aliquots. Purified viruses were titered using the plaque assay.
Oral epithelial cells (OC3 cells) were infected with HSV-1 at multiplicity of infection (MOI) of 5 or mock infected for 1 h at 37° C. for viral entry to occur. Unbound viruses were removed. Infected cells were then overlaid with appropriate media and incubated at 37° C. The Antrodia camphorata fruit body extracts used were A2 (Antrodia camphorata extracts), A3 (dehydrosulphurenic acid), A4 (antcin K), A5 (versisponic acid), and A6 (dehydroeburicoic acid). For the effects of Antrodia camphorata fruit body extracts, oral cells were treated in three different experimental conditions (FIG. 1): (1) no treatment, (2) pre-treatment with each Antrodia camphorata fruit body extracts before infection and (3) post-treatment with each Antrodia camphorata fruit body extracts after infection. Purified HSV-1 virions were also incubated directly with media only or media containing Antrodia camphorata fruit body extracts. The viral infectivity of treated virions was then examined using the plaque assay.
Viral titers in the supernatants after infection were determined using the plaque assay. Cells were grown to confluence and infected with tenfold serial dilution of the samples. Cells were then overlaid with medium containing 3% carboxymethylcellulose to prevent the formation of secondary plaques. Cells were incubated until well-defined clear plaques were formed. Cells were fixed with 3.7% formaldehyde and stained with crystal violet. Plaques were observed and counted under an inverted microscope. The viral yield of the media-pretreated HSV-1 infected control was considered to be 100%.

In another data set the test system is HepG2.2.15 cells. Briefly: MTT cell viability, HepG2.2.15 cells. The conditions noted are these: 48 h, 20 μg/ml.
Data set [2] relates to HuS-E/2 immortalized human primary hepatocytes cells. Briefly: MTT cell viability, HuS-E/2 cells. The following applies: 48 h, 20 μg/ml.
For the next data set, the system named is HSV-1 virions. Nature of the data set: Direct effect on infectivity of purified HSV-1 virions, plaque assay. In kind it is cell-based, Herpes simplex virus type 1. The following applies: purified virions incubated directly with drug 1 hour at 37° C., dose-dependent. On the procedure:
Purified HSV-1 was incubated directly with media containing various concentrations of each Antrodia camphorata extracts for 1 hour at 37° C. The viral titers were then examined in oral epithelial cells (OC3) using the plaque assay. The results shown are the mean±SEM from at least three independent experiments. Statistical differences are shown by different lowercase letters (analysis of variance, Tukey, α=0.05).
as §2
Oral epithelial cells (OC3 cells) were infected with HSV-1 at multiplicity of infection (MOI) of 5 or mock infected for 1 h at 37° C. for viral entry to occur. Unbound viruses were removed. Infected cells were then overlaid with appropriate media and incubated at 37° C. The Antrodia camphorata fruit body extracts used were A2 (Antrodia camphorata extracts), A3 (dehydrosulphurenic acid), A4 (antcin K), A5 (versisponic acid), and A6 (dehydroeburicoic acid). […]
Viral titers in the supernatants after infection were determined using the plaque assay. […] Plaques were observed and counted under an inverted microscope. […]

The test system of a further data set is HBV. Nature of the data set: HBV entry/infection of DMSO-differentiated HuS-E/2 cells (HBsAg/HBeAg ELISA, HBV mRNA RT-PCR). In kind it is cell-based, Hepatitis B virus. The conditions noted are these: for levels of HBV mRNA: HuS-E/2 cells, drug present during infection; for inhibiting the entry of HBV into HuS-E/2 cells: by HBsAg, HBeAg and HBV mRNA expression levels. The protocol: DMSO-differentiated HuS-E/2 cells were exposed to HBV at a MOI of 10 for 20 h in the presence of the indicated concentration of Antrodia camphorata fruit body extracts, then the HBV and drugs were removed and the cells incubated for 2 days, when HBsAg secreted into the culture medium was measured by ELISA and expressed as a percentage of the value for the non-drug-treated controls. The results are the mean±SD for three independent experiments. *, P<0.05; **, P<0.01; ***, P<0.001.
DMSO-differentiated HuS-E/2 cells were exposed to HBV at a MOI of 10 for 20 h in the presence of the indicated concentration of Antrodia camphorata fruit body extracts, then the HBV and drugs were removed and the cells incubated for 2 days, when HBeAg secreted into the culture medium was measured by ELISA and expressed as a percentage of the value for the non-drug-treated controls. The results are the mean±SD for three independent experiments. *, P<0.05; **, P<0.01; ***, P<0.001.
DMSO-differentiated HuS-E/2 cells were exposed to HBV at a MOI of 10 for 20 h in the presence of the indicated concentration of Antrodia camphorata fruit body extracts, then the HBV and drugs were removed and the cells incubated for 2 days. RNA was then extracted from cells and subjected to RT-PCR to measure HBV mRNA levels. The results expressed were as a percentage of the value for the non-drug-treated cells. Control PCRs were performed for endogenous GAPDH mRNA as the loading control. The results are the mean±SD for three independent experiments. *, P<0.05; **, P<0.01; ***, P<0.001.
HuS-E/2 cells that retains primary hepatocyte characteristics even after prolonged culture are utilized for HBV infection. For HBV infection, HuS-E/2 cells were differentiated with 2% DMSO for 7 days, and virus particles were collected to infect and replicate in HuS-E/2 cells as described in our previous study. These cells are useful to assay infectivity of HBV strains, and screening of anti-HBV agents.
Total DNA is extracted with a Genomic DNA isolation kit (Nexttec Biotechnologie, Germany). Total RNA is isolated from cultured cells using TRIzol® reagent (Invitrogen). […] The results are analyzed with the iCycler iQ real-time PCR detection system (Bio-Rad). […]
To evaluate the effects of Antrodia camphorata fruit body extracts on HBV infectivity and replication, HuS-E/2 cells were infected with ayw subtype HBV derived from HepG2.2.15 cells. The different Antrodia camphorata fruit body extracts were added to the medium during infection with HBV for […], then the infected cells were washed and incubated in fresh medium for 48 hours, when HBsAg and HBeAg in culture medium were detected by ELISA and HBV mRNA was detected by real-time PCR as an index of efficiency of HBV infection.

Where [3] appears, read: OC3 cells post-treated with 2.5 μg/ml after HSV-1 infection.
Setting [4] is: OC3 cells pre-treated with 10 μg/ml for 2 hours before HSV-1 infection.

For the compound `C=C(CC[C@H](C(=O)O)[C@H]1C[C@H](O)[C@@]2(C)C3=CC[C@H]4C(C)(C)[C@@H](O)CC[C@]4(C)C3=CC[C@]12C)C(C)C` [A3, dehydrosulphurenic acid], in data set [1], the “viability of mock-infected cells or HSV-1 infected cells” value is on record as “not affected evidently”. Besides, in the data set on HSV-1 virus (KOS strain), the “viral yields in the supernatants, post-treatment” value (“viral yields … post-treatment” for short) is “did not reach statistical difference” and the “viral yields in the supernatants, pre-treatment” value (“viral yields … pre-treatment” below) is on record as “did not reach statistical difference”. Moreover, the “viral yield reduced to” value in the data set on HSV-1 virus (KOS strain) (setting [3]) worked out at 65%. In addition, the “viral yield reduced to” value in the data set with HSV-1 virus (KOS strain) (setting [4]) came to 57%.

In the case of `C=C(CC[C@@H](C(=O)O)[C@H]1C[C@H](OC(C)=O)[C@@]2(C)C3=C(CC[C@]12C)[C@@]1(C)CC[C@H](O)C(C)(C)[C@@H]1CC3)C(C)C` [A5, versisponic acid], the “toxic effect (MTT cell viability)” value with HepG2.2.15 cells was “little or no toxic effect”; in data set [2], “no toxic effect”. Further, the “viral infectivity of treated HSV-1 virions” value in the data set with HSV-1 virions is “statistically significantly inhibited”. Also, the “levels of HBV mRNA” value in the data set on HBV is reported as “decrease”. In addition, the “inhibiting the entry of HBV into HuS-E/2 cells” value in the data set on HBV is reported as “much more effective”. Besides, the “viability of mock-infected cells or HSV-1 infected cells” value in data set [1] is on record as “not affected evidently”. In the data set on HSV-1 virus (KOS strain), the “viral yields … post-treatment” value is reported as “significantly reduced”. The “viral yields … pre-treatment” value with HSV-1 virus (KOS strain) is “significantly reduced”. The “viral yield reduced to” value in the data set with HSV-1 virus (KOS strain) (OC3 cells pre-treated with 25 μg/ml for 2 hours before HSV-1 infection) came out at 48%; in the data set on HSV-1 virus (KOS strain) (infected OC3 cells post-treated with 12.5 μg/ml) it was 57%.

For `C=C(CC[C@@H](C(=O)O)[C@H]1CC[C@@]2(C)C3=CC[C@H]4C(C)(C)[C@@H](O)CC[C@]4(C)C3=CC[C@]12C)C(C)C` [A6, dehydroeburicoic acid], the “toxic effect (MTT cell viability)” value in data set [2] is given as “no toxic effect”. In addition, the “viral infectivity of treated HSV-1 virions” value in the data set on HSV-1 virions is “statistically significantly inhibited”. Also, in the data set on HBV, the “levels of HBV mRNA” value is reported as “decrease” and the “inhibiting the entry of HBV into HuS-E/2 cells” value is recorded as “much more effective”. In the data set on HSV-1 virus (KOS strain), the “viral yields … post-treatment” value is “significantly reduced” and the “viral yields … pre-treatment” value was “significantly reduced”. In addition, the “viral yield reduced to” value in the data set with HSV-1 virus (KOS strain) (setting [3]) is listed as 63%. For the same compound, the “viral yield reduced to” value with HSV-1 virus (KOS strain) (setting [4]) is reported as 37%.

The values above are taken from patent publication US11253527B2, “Method and composition for inhibiting virus infection” (priority 2019, dated 2022).
